Article PMC6273140, “Anti-Inflammatory Chemical Profiling of the Australian Rainforest Tree Alphitonia petriei (Rhamnaceae)” (Molecules, 2016)
Like-named read-outs stand apart in the source and are kept apart here.

Legend:
[1] = system: NO production in LPS + IFN-γ activated RAW 264.7 macrophages; assay: Inhibition of LPS + IFN-γ induced nitric oxide production (Griess assay); format: cell-based; settings: for IC50: Mus musculus, read-out: NO Inhibition (IC50 in μM) (n = 8); for anti-inflammatory activity (in words): NO and TNF-α
Protocol: (§1) RAW 264.7 macrophages were grown in 175 cm^2 flasks on DMEM containing 5% foetal bovine serum (FBS) that was supplemented with penicillin (100 μg/mL), streptomycin (100 μg/mL) and L-glutamine (2 mM). The cell line was maintained in 5% CO2 at 37 °C, with media being replaced every 3–4 days. Once cells had grown to confluence in the culture flask, they were removed using a rubber policeman, as opposed to using trypsin, which can remove membrane-bound receptors. The cell suspension was concentrated by centrifugation for 3 min at 900 rpm and re-suspended in a small volume of fresh DMEM (with 1% antibiotics and 5% FBS); cell densities were estimated using a Neubauer counting chamber. The cell concentration was adjusted with DMEM (with 1% antibiotics and 5% FBS) to obtain 60,000 cells/100 μL cell suspension. An aliquot of 100 μL of this cell suspension was dispensed into the wells of 96-well plates. Plates were incubated at 37 °C, 5% CO2 for 18 h before the activation experiments were carried out.
(§2) For assays, 90 μL of each concentration of compounds (8 concentrations made by serial dilution from 0 µg/mL to 36 µg/mL compound in DMEM) were added an hour prior to addition of 10 µL of activator. A combination of 10 μg·mL^−1 LPS and 10 U·mL^−1 (1 unit = 0.1 ng/mL) IFN-γ, were used for activation. After activation, the cells were incubated for 24 h at 37 °C and then NO, TNF-α and cell viability was determined. Unactivated cells (exposed to media alone) were used as negative control and activated cells as positive control.
Nitric oxide was determined by Griess reagent quantification of nitrite. Griess reagent was freshly made up of equal volumes of 1% sulfanilamide and 0.1% napthyethylene-diamine in 5% HCl. From each well, 50 µL of supernatant was transferred to a fresh 96-well plate and mixed with 50 µL of Griess reagent and measured at 540 nm in a POLARstar Omega microplate reader (BMG Labtech, Mornington, Australia). The concentration of nitrite was calculated using a standard curve with […] (0–500 μM), and linear regression analysis.
(§3) Data calculations were performed using MS-Excel 2010 software. IC50 values were obtained by using the sigmoidal dose–response function in GraphPad Prism. The results were expressed as mean ± standard deviation (SD).

[2] = system: TNF-α production in LPS + IFN-γ activated RAW 264.7 macrophages; assay: Inhibition of LPS + IFN-γ induced TNF-α production (ELISA); format: cell-based; settings: for IC50: Mus musculus, read-out: TNF-α Inhibition (IC50 in µM) (n = 3)
Protocol: as §1, §2
The diluted supernatants were used for determination of TNF-α using a commercial sandwich ELISA (Peprotech) according to the manufacturer’s protocol. In brief, the capture antibody was used at a concentration of 1.5 μg·mL^−1 in PBS (1.9 mM NaH2PO4, 8.1 mM Na2HPO4, 154 mM NaCl) (pH 7.4). Serial dilutions of TNF-α standard from 0 to 10,000 pg·mL^−1 in diluent (0.05% Tween-20, 0.1% BSA in PBS) were used as internal standard. TNF-α was detected with a biotinylated second antibody and an Avidin peroxidase conjugate with TMB as detection reagent. The colour development was monitored at 655 nm, taking readings every 5 min. After approximately 30 min the reaction was stopped using 0.5 M sulphuric acid and the absorbance was measured at 450 nm using a POLARstar Omega microplate reader (BMG Labtech, Mornington, Australia), expressed as a percentage in control cells after conversion of the concentrations, using a standard curve constructed with defined concentrations of TNF-α. Curve fitting of this standard curve and extrapolation of experimental data were performed using non-linear regression analysis.
as §3

[3] = Cell viability by the Alamar Blue assay (cytotoxicity); format: cell-based; settings: mouse, RAW 264.7, 24 h, mean ± SD, read-out: Cytotoxicity (LC50 in μM) (n = 8)
Protocol: as §1, §2
One hundred microlitres of Alamar Blue solution (10% Alamar Blue (Resazurin) in DMEM media) was added to each well, incubated at 37 °C for 2 h. After incubation, fluorescence intensity was measured with the microplate reader (excitation at 530 nm and emission at 590 nm) and results were expressed as a percentage of the intensity of that in control cells, after background fluorescence was subtracted.
as §3

[4] = system: Bacillus subtilis; parameters: method as in earlier work; settings: cited from earlier work
[5] = system: SCC4 OSCC cells; parameters: method as in doi:10.1016/j.jff.2015.07.017; settings: read-out: suppression of proliferation IC50; cited from earlier work
[6] = system: SCC2095 OSCC cells; parameters: method as in doi:10.1016/j.jff.2015.07.017; settings: read-out: suppression of proliferation IC50; cited from earlier work
[7] = system: 12-O-tetradecanoylphorbol 13 acetate (TPA)-induced topical inflammation in mice ears; parameters: method as in PMID 16697209; settings: cited from earlier work
[8] = system: NO production in LPS-stimulated RAW 264.7 cells; parameters: method as in PMID 19557361; settings: cited from earlier work
[9] = RAW264.7, RAW 264.7, LPS + IFN-γ, 24 h, Griess assay, mean ± SD
[10] = RAW264.7, RAW 264.7, LPS + IFN-γ, 24 h, ELISA, mean ± SD
[11] = RAW 264.7 macrophages activated with LPS and IFN-γ

Row | IC50 [1, 9] [µM] | IC50 [2, 10] [µM] | SMILES | IC50 ([1]; RAW264.7, 24 h) [µM] | IC50 ([2]; RAW264.7, 24 h) [µM] | CC50 at 24 h [3] [µM] | CC50 at 24 h [3, 11] [µM] | also measured
1 | – | – | C=C(C)[C@@H]1CC[C@]2(C(=O)O)CC[C@]3(C)[C@H](CC[C@@H]4[C@@]5(C)C[C@@H](OC(=O)/C=C/c6ccc(O)cc6)[C@H](O)C(C)(C)[C@@H]5CC[C@]43C)[C@@H]12 [Compound 3, trans-coumaroyl alphitolic acid] | 1.7 ± 0.3 | 10.9 ± 2.3 | 4.8 ± 0.9 | – | increase in potency of NO inhibition compared with compound 2 ([1]; RAW 264.7, LPS + IFN-γ): ten-fold
2 | 1160 ± 133 | 723 ± 261 | CC(C)Cc1ccc(C(C)C(=O)O)cc1 (stereo not shown) [Ibuprofen, ibuprofen, reference compound] | – | – | – | > 1500 | –
3 | – | – | C=C(C)C1CCC2(C(=O)O)CCC3(C)C(CCC4C5(C)CC(=O)C(O)C(C)(C)C5CCC43C)C12 (stereo not shown) [2-ketobetulinic acid, reference compound] | – | – | – | – | antibacterial activity [4]: showed antibacterial activity
4 | – | – | C=C(C)[C@@H]1CC[C@]2(C(=O)O)CC[C@]3(C)[C@H](CC[C@@H]4[C@@]5(C)[C@@H](C(=O)O)[C@H](O)C(C)(C)[C@@H]5CC[C@]43C)C12 (stereo partly shown) [Compound 1, emmolic acid] | > 36 | > 36 | > 36 | – | anti-inflammatory activity (in words) ([1]; RAW 264.7, LPS + IFN-γ): inactive
5 | – | – | C=C(C)[C@@H]1CC[C@]2(C(=O)O)CC[C@]3(C)[C@H](CC[C@@H]4[C@@]5(C)C[C@@H](OC(=O)/C=C\c6ccc(O)cc6)[C@H](O)C(C)(C)[C@@H]5CC[C@]43C)[C@@H]12 [Compound 4, cis-coumaroyl alphitolic acid] | 3.5 ± 0.5 | 5.6 ± 0.4 | 8 ± 0.3 | – | inhibition of TNF-α (in words) ([2]; RAW 264.7, LPS + IFN-γ): strong inhibition
6 | – | – | C=C(C)[C@@H]1CC[C@]2(C(=O)O)CC[C@]3(C)[C@H](CC[C@@H]4[C@@]5(C)C[C@@H](O)[C@H](O)C(C)(C)[C@@H]5CC[C@]43C)[C@@H]12 [Compound 2, alphitolic acid] | 17.6 ± 0.7 | 22.7 ± 1.1 | 18.6 ± 0.8 | – | IC50 [5]: 12 µM; IC50 [6]: 15 µM; inhibition of TPA-induced topical inflammation [7]: inhibit
7 | – | – | C=C(C)C1CCC2(C(=O)O)CCC3(C)C(CCC4C5(C)CCC(OC(=O)C=Cc6ccc(O)c(O)c6)C(C)(C)C5CCC43C)C12 (stereo not shown) [betulinic acid 3-O-caffeate] | – | – | – | – | NO inhibition (in words) [8]: most active compound
8 | 217 ± 43 | > 333 | O=C(O)Cc1ccccc1Nc1c(Cl)cccc1Cl [Diclofenac, diclofenac sodium, reference compound] | – | – | – | > 333 | –
9 | 8.3 ± 1 | 23.5 ± 3.7 | C=C(C)[C@@H]1CC[C@]2(C(=O)O)CC[C@]3(C)[C@H](CC[C@@H]4[C@@]5(C)CC[C@H](O)C(C)(C)[C@@H]5CC[C@]43C)[C@@H]12 [Compound 5, betulinic acid] | – | – | – | 29.1 ± 4.4 | antibacterial activity [4]: showed antibacterial activity

Row | SMILES | IC50 [1, 9] [µM] | IC50 [2, 10] [µM] | IC50 ([1]; RAW264.7, 24 h) [µM] | IC50 ([2]; RAW264.7, 24 h) [µM] | CC50 at 24 h [3] [µM] | CC50 at 24 h [3, 11] [µM] | also measured
10 | C=C(C)[C@@H]1CC[C@]2(C(=O)O)CC[C@]3(C)[C@H](CC[C@@H]4[C@@]5(C)[C@@H](C(=O)O)[C@H](OC(C)=O)C(C)(C)[C@@H]5CC[C@]43C)C12 (stereo partly shown) [Compound 6, emmolic acid acetate] | 14.7 ± 0.6 | > 36 | – | – | 13.1 ± 2.5 | – | anti-inflammatory activity (in words) ([1]; RAW 264.7, LPS + IFN-γ): moderate anti-inflammatory activity
